These are literature values, as cited in paper PMC12465416 (BMC Infectious Diseases, 2025).

The conditions of this data set: IV PMB alone to treat CRGNB pneumonia.

Where a name gives a salt, the structure may show the parent alone. Where a SMILES comes first, the peptide text is derived from it. Bridges are numbered along the chain shown (N, C = ends). [ ]: non-standard residue; d: D form. The star is where a group is joined. X1 = CC[C@H](C)CCCCC(=O)*; Dab = NCC[C@H](N)C(=O)O

Consider `CC[C@H](C)CCCCC(=O)N[C@@H](CCN)C(=O)N[C@H](C(=O)N[C@@H](CCN)C(=O)N[C@H]1CCNC(=O)[C@H]([C@@H](C)O)NC(=O)[C@H](CCN)NC(=O)[C@H](CCN)NC(=O)[C@H](CC(C)C)NC(=O)[C@@H](Cc2ccccc2)NC(=O)[C@H](CCN)NC1=O)[C@@H](C)O` [PMB, polymyxin B sulfate] (X1-[Dab]T[Dab][Dab][Dab][dF]L[Dab][Dab]T; lactam 4-C), for which the “drug concentrations in ELF compared with those in plasma” value is given as “significantly lower”.
